Experimental data as given in patent US11278561B2, “Combination treatment for hematological cancers” (Geron Corporation, priority 2016, dated 2022).

Columns and labels:
MOLM-13 cells = assay: Annexin V / Propidium Iodide flow cytometry apoptosis assay in MOLM-13; type: cell-based; set-up: key to Excess over HSA / Excess over BLISS: excess = combination minus HSA/Bliss expected, in % apoptotic cells; settings: for Excess over BLISS / Excess over HSA: imetelstat sodium μM: r7 50, r8 25, r9 10, r10 0
Experimental: AML tumor cells KG-1 (ATCC #CCL-246) and MOLM-13 (DSMZ #ACC554) were plated at a density of ˜20,000 cells per well on 96-well polystyrene U-bottom tissue culture plates (Corning catalog #353777) in RPMI-1640 (ThermoFisher catalog #11875-085) supplemented with 10% fetal bovine serum (ThermoFisher catalog #16140-089) and 1% penicillin/streptomycin antibiotic cocktail (ThermoFisher catalog 15140-122) and grown in a 37° C. incubator under humidified 5% CO2 atmosphere.
At 48 and 96 hours, cells were measured for healthy, early apoptotic and apoptotic populations with an Annexin V (interior cell membrane stain) plus Propidium Iodide (PI, DNA binding dye) flow cytometry assay kit (BioLegend catalog 640914). Annexin V detects the externalization of phosphatidylserine in apoptotic cells using recombinant annexin V conjugated to green-fluorescent FITC dye and dead cells using Propidium iodide (PI). Propidium iodide stains necrotic cells with red fluorescence. After treatment with both probes, early apoptotic cells show green fluorescence, apoptotic (dead) cells show red and green fluorescence, and live cells show little or no fluorescence. […] Cells were stained for 30 minutes at 4° C. in the dark, followed by 3× washes with PBS and suspension in FACs Stain Buffer (BD catalog 554657) prior to interrogation on a BD FACs Canto flow cytometer for forward scatter, side scatter, FITC, and PE channels. […] The percentage of apoptotic cells (double labeled) was used to calculate combination effects using both the Highest Single Agent (HSA) and Bliss additivity models (J Tang et al. Frontiers in Pharmacology. 2015; 6 (181)).
Using the HSA model, the cytotoxic effect of the combined condition (“C”) was compared to the effect generated by each of the single agent controls (“A” or “B”) for the respective dose in the combination: Excess over HSA=C−A (if A>B) or C−B (if A<B)
The Bliss model performs a similar comparison, but instead of the highest effect of single agent, the Bliss model subtracts from the combination a value equal to the sum of each single agent minus their product: Excess over Bliss=C−[(A+B)−(A*B)]
Treated cells were analyzed by Flow cytometry for Annexin V and Propidium Iodide staining as described previously. Events gated in the apoptotic population (Annexin V+/Propidium Iodide+) were used to determine synergy scores for the combination matrix. Combination data analysis was generated by the Horizon Chalice™ Analyzer Software (Horizon Discovery Group, Cambridge, UK). […] Mismatch and non-complimentary controls were not utilized in this experiment.
Combination conditions undergo isobolar analysis to generate a combination index and graphically represent the behavior of a combination with synergistic pairs falling below the isobologram and antagonistic falling above it (additive combinations would be expected to fall on the line). The Horizon Chalice™ Analyzer Software additionally provides a synergy score, with values greater than 1 indicating synergy.

telomerase = telomerase activity by qPCR TRAP in MOLM-13 lysates; type: cell-based, human; settings: 50 μM imetelstat sodium or 20 nM ABT-199
Experimental: Samples from the previous section for protein analysis were collected as cell pellets by centrifugation at 5 minutes for 1500K for lyses and protein extraction. Protein lysates were analyzed by utilizing a modified method combined from two primary sources (Hou, et al. (2001) 43(3) 519-524 and Nature Protocols (2006) 1 (3) 1583-1590). Lysates were generated by adding 80 μL of a 10 mM Tris-EDTA, 1% NP-40, 10% Glycerol, 150 mM NaCl, 1 mM MgCl2, 250 μM Sodium Deoxycholate, 100 μM AEBSF, 5 mM 2-mercaptoethanol buffer and incubating on ice for 30 minutes. Lysates were centrifuged for 15 minutes at max speed and at 4° C. to pellet cellular debris. Protein yield from clarified lysates were quantified using a BCA assay (ThermoFisher catalog 23252) and subjected to a qPCR TRAP-based assay to determine relative telomerase activity (Power SYBR Green PCR Master Mix—ThermoFisher #4367659) using a ViiA7 Real-Time PCR system from ThermoFisher. In this assay, protein lysates are exposed to synthetic oligonucleotides mimicking telomere sequences in the presence of excess dNTPs and SYBR green dye. The greater the activity of telomerase, the greater extension of the synthetic primers, and therefore greater staining of nucleic acid and signal generated by the SYBR dye. This signal is compared to a standard curve of control protein lysate to determine the relative telomerase activity between samples.

[1] = test system: MOLM-13 AML disseminated model; assay: MOLM-13 AML disseminated mouse model, survival; type: in vivo; settings: MOLM-13 implanted SCID-beige mice; imetelstat sodium or MM 30 mg/kg ip TIW x 4 weeks, ABT-199 100 mg/kg po qd x 4 weeks
Experimental: An in vivo study in the MOLM-13 AML disseminated mouse model was conducted to assess efficacy and survival. Specifically, on day 0 of the study, MOLM-13 AML tumor cells were implanted into mice. […] The percent survival of the mice was assessed as a function of time (days post tumor cell implantation). The study lasted for a total of 108 days (77 days after stopping treatment).
Fifty female SCID-beige mice (6-week-old, Jackson Laboratory) were intravenously injected with 1 million MOLM-13 cells and randomly divided into five groups.
Mice were observed daily and body weights were measured twice a week. The survival of mice in each group was followed. The study was terminated on day 108, which was 77 days post last treatment. The increased life span (“ILS”) was evaluated for each group, and the % ILS versus the vehicle control was calculated as: % ILS=100×(T−C)/C where T is the median survival of the treatment group and C is the median survival of the control group.

[2] = MOLM-13, 48 hours, ABT-199 1 nM
[3] = MOLM-13, 48 hours, ABT-199 5 nM
[4] = MOLM-13, 48 hours, ABT-199 20 nM
[5] = MOLM-13, 48 hours, ABT-199 100 nM
[6] = MOLM-13, 48 hours, ABT-199 500 nM
[7] = MOLM-13, 96 hours, ABT-199 1 nM
[8] = MOLM-13, 96 hours, ABT-199 5 nM
[9] = MOLM-13, 96 hours, ABT-199 20 nM
[10] = MOLM-13, 96 hours, ABT-199 100 nM
[11] = MOLM-13, 96 hours, ABT-199 500 nM

CC1(C)CCC(CN2CCN(c3ccc(C(=O)NS(=O)(=O)c4ccc(NCC5CCOCC5)c([N+](=O)[O-])c4)c(Oc4cnc5[nH]ccc5c4)c3)CC2)=C(c2ccc(Cl)cc2)C1 [ABT-199, 4-[4-[[2-(4-chlorophenyl)-4,4-dimethylcyclohexen-1-yl]methyl]piperazin-1-yl]-N-[3-nitro-4-(oxan-4-ylmethylamino)phenyl]sulfonyl-2-(1H-pyrrolo [2,3-b]pyridin-5-yloxy)benzamide]
Excess over BLISS (MOLM-13 cells; [2]): 0 | Excess over HSA (MOLM-13 cells; [2]): 0 | Excess over BLISS (MOLM-13 cells; [3]): 0 | Excess over HSA (MOLM-13 cells; [3]): 0 | Excess over BLISS (MOLM-13 cells; [4]): 0 | Excess over HSA (MOLM-13 cells; [4]): 0 | % apoptotic cells (double label) (MOLM-13 cells; [5]): ~19% | Excess over BLISS (MOLM-13 cells; [5]): 0 | Excess over HSA (MOLM-13 cells; [5]): 0 | % apoptotic cells (double label) (MOLM-13 cells; [6]): ~30% | Excess over BLISS (MOLM-13 cells; [6]): 0 | Excess over HSA (MOLM-13 cells; [6]): 0 | Excess over BLISS (MOLM-13 cells; [7]): 0 | Excess over HSA (MOLM-13 cells; [7]): 0 | Excess over BLISS (MOLM-13 cells; [8]): 0 | Excess over HSA (MOLM-13 cells; [8]): 0 | Excess over BLISS (MOLM-13 cells; [9]): 0 | Excess over HSA (MOLM-13 cells; [9]): 0 | Excess over BLISS (MOLM-13 cells; [10]): 0 | Excess over HSA (MOLM-13 cells; [10]): 0 | Excess over BLISS (MOLM-13 cells; [11]): 0 | Excess over HSA (MOLM-13 cells; [11]): 0 | cell death (MOLM-13 cells; MOLM-13, 96 hours, ABT-199 at 5, 20, 100 and 500 nM): > 30% | apoptotic activity (MOLM-13 cells; MOLM-13, after 48 hours, concentrations not given): 30% | telomerase activity as compared to control (telomerase; MOLM-13, 48 hours): no effect | telomerase activity as compared to control (telomerase; MOLM-13, 96 hours): ~70% | % ILS (increased life span as compared to vehicle control) [1]: 36.3% | Median Survival [1]: 30 days
